# Literature values in US11904070B2, “Tissue scaffold and scaffold composition” (Locate Therapeutics Limited, priority 2017, dated 2024).
# Conditions: at 25° C.
row,Compound,Solubility in water
1,OCC(O)CO [Glycerol],Miscible
2,"CN1CCCC1=O [NMP, N-Methyl-2-pyrrolidone]",Miscible
3,"CC(=O)OCC(COC(C)=O)OC(C)=O [Triacetin, triacetin]",5.8 % w/v
4,C[S+](C)[O-] [DMSO],Miscible
5,polyethylene glycol 400 [PEG400],Miscible
6,"CCO [EtOH, Ethanol]",Miscible
